{"source": "patent US20020077322A1", "about": "“Protection of neurons against glutamate-induced damage in glaucoma and other conditions” (priority 2000, published 2002)", "format_in_all_cases": "in vivo, C57/BL6 mice", "key": {"[1]": {"system": "retinal ganglion cells", "assay": "Effect of cannabinoid antagonists on WIN protection of NMDA-treated retinal ganglion cells (Example 3)", "conditions": "preliminary tests", "experimental": "A topical application of 0.5% proparacaine hydrochloride was administered prior to intravitreal injections. A small incision was made with a 22-gauge needle in the dorsal limbus, through the conjunctiva and sclera. A Hamilton syringe was passed through this incision at a 40 to 50 degree angle to the equator to administer the solution. All eyes were injected with 0.5 μl of solution. All procedures were performed under microscopy. […] These mice were not used in the analysis.\nTissue Preparation: Flat mount preparations of the retinae and counts of cells in the retinal ganglion cell layers were performed to evaluate cell loss. Ten days after intravitreal injections, animals were euthanized by an intraperitoneal overdose injection of pentobarbital. Animals were immediately perfused with 4% paraformaldehyde, and the eyes enucleated. The retinae were dissected and mounted onto gelatinized slides, ganglion cell layer up. […]"}, "[2]": {"system": "retinal ganglion cells", "assay": "Topical WIN55212-2 after intravitreal NMDA; counts of surviving retinal ganglion cells (Example 2)", "method": "(§1) Experiments were performed on adult C57/BL6 mice of an average of 4 months, weighing 15-25 g. Animals were given food and water ad libitum. All studies were conducted in accordance with the principles and procedures outlined in the National Institute of Health (NIH) Guide for the Care and Use of Laboratory Animals.\nTwo sterile solutions were administered by intravitreal injection: balanced saline solution, and NMDA (Sigma). The NMDA solution was comprised of 320 mM NMDA in balanced saline solution (net of 160 nmol of NMDA injected per eye).\n(§2) Intravitreal Injections: Mice were anaesthetized by intraperitoneal injection of 0.017 ml/g body weight of a solution containing 1.75% tribromoethanol and 1.75% tertiary amyl alcohol. A topical application of 0.5% proparacaine hydrochloride was administered prior to intravitreal injections. A small incision was made with a 22-gauge needle in the dorsal limbus, through the conjunctiva and sclera. A Hamilton syringe was passed through this incision at a 40 to 50 degree angle to the equator to administer the solution. All eyes were injected with 0.5μl of solution. All procedures were performed under microscopy. Occasionally this procedure produced cataracts in mice (less than 5%) due to damage to the lens with the syringe. These mice were not used in the analysis.\nTopical Application of cannabinoid: A topical application solution of WIN55212-2 (Sigma) was prepared in 2-hydroxypropyl-β-cyclodextrin (Sigma). This solution contained 2.4 mg of WIN55212-2 in 1 ml 2-hydroxypropyl-β-cyclodextrin.\n10 μl of this WIN55212-2 solution was applied to the anterior surface of the eye. In the experiments described, it was applied three times daily on one eye only. The applications of the WIN solution began one day after the NMDA injections were made, to allow time for the surface of the eye to heal, and the topical applications were made for 9 days. Thus, while each eye received the NMDA injections, only one eye of each animal had the WIN solution applied onto it.\nTissue Preparation: Flat mount preparations of the retinae and counts of cells in the retinal ganglion cell layers were performed to evaluate cell loss. Ten days after intravitreal injections, animals were euthanized by an intraperitoneal overdose injection of pentobarbital. Animals were immediately perfused with 4% paraformaldehyde, and the eyes enucleated. The retinae were dissected and mounted onto gelatinized slides, ganglion cell layer up. Several radial cuts were made at the periphery, and the surface was cleared and flattened with a fine brush (camel hair, size 0). […]\nMorphometric Analysis: The ganglion cell layer was imaged at 400X and 630X and cells were counted within 120×120 μm square grids. […]"}, "[3]": {"system": "retinal ganglion cells", "assay": "Intravitreal NMDA with or without co-injected WIN 55,212-2; counts of surviving cells in the retinal ganglion cell layer (Example 1)", "method": "as §1\nThree sterile solutions were administered by intravitreal injection: balanced saline solution, NMDA (Sigma) and NMDA plus WIN 55,212-2 (Sigma). The NMDA solution was comprised of 320 mM NMDA in balanced saline solution (net of 160 nmol of NMDA injected per eye). The WIN solution contained 0.5 mM WIN 55,212-2 in the NMDA solution using a DMSO vehicle (less than 0.1% of solution) to carry WIN (net of 0.25 nmol of WIN injected per eye).\nas §2, with “Injections” for “Injections:”, “0.5 μl” for “0.5μl”\nTissue Preparation Flat mount preparations of the retinae and counts of cells in the retinal ganglion cell layers were performed to evaluate cell loss. Ten days after intravitreal injections, animals were euthanized by an intraperitoneal overdose injection of pentobarbital. Animals were immediately perfused with 4% paraformaldehyde, and the eyes enucleated. The retinae were dissected and mounted onto gelatinized slides, ganglion cell layer up. Several radial cuts were made at the periphery, and the surface was cleared and flattened with a fine brush (camel hair, size 0). The flat mounted retinae were immersed overnight in a solution containing 10% formaldehyde and 90% alcohol. The sections were subsequently dehydrated and stained with 0.5-1% cresyl violet and enclosed with coverslips.\nMorphometric Analysis (Quantification of Cell Loss in the Retinal Ganglion Cell Layer) The ganglion cell layer was imaged at 400×and cells were counted within 70×70 um grids. […] Quandrant counts from each retina were averaged to give the value for each eye. Morphologically distinguishable glial cells and vascular endothelial cells were excluded from the cell count, but no attempt was made to distinguish between ganglion and amacrine cells. […]"}, "[4]": {"conditions": "intravitreal, 160 nmol NMDA per eye, 10 day period, vs saline eye"}, "[5]": {"conditions": "single intravitreal application, 0.25 nmol WIN per eye with NMDA, 10 days"}}, "data": [{"smiles": "COc1ccc(C(=O)c2c(C)n(CCN3CCOCC3)c3cc(I)ccc23)cc1", "note": "[AM 630]", "values": [{"measurement": "cell counts with CB2 antagonist in combination with WIN and NMDA", "setting": "[1]", "result": "same cell counts as the WIN+NMDA eye"}]}, {"smiles": "CN[C@H](CC(=O)O)C(=O)O", "note": "[NMDA, N-methyl-D-aspartate]", "values": [{"measurement": "loss of retinal ganglion cells caused by NMDA", "setting": "[2]; [4]", "result": 70, "unit": "%"}, {"measurement": "loss of retinal ganglion cells caused by NMDA", "setting": "[3]; [4]", "result": 70, "unit": "%"}]}, {"smiles": "Cc1c(C(=O)c2cccc3ccccc23)c2cccc3c2n1[C@H](CN1CCOCC1)CO3", "note": "[WIN]", "values": [{"measurement": "excitotoxic damage in ganglion cell layer, photomicrographs (FIG. 4)", "setting": "[2]; NMDA-treated retina, unilateral topical WIN55212-2", "result": "ameliorated the excitotoxic damage"}, {"measurement": "retinal ganglion cells protected, contralateral eye (no WIN directly applied)", "setting": "[2]; WIN applied topically to the other eye, presumably systemic delivery", "result": "about 25%"}, {"measurement": "resulting loss of ganglion cells, NMDA plus topical WIN, treated eye", "setting": "[2]; topical WIN on days 2-9, 10 day period", "result": 30, "unit": "%"}, {"measurement": "increase in number of surviving ganglion cells (NMDA+WIN vs NMDA eye)", "setting": "[3]; FIG. 5 left pair of bars, data taken from Example 1", "result": "by a factor of two"}, {"measurement": "diminution of NMDA-induced ganglion cell loss", "setting": "[3]; [5]", "result": 80, "unit": "%"}, {"measurement": "resulting loss of ganglion cells with NMDA plus WIN", "setting": "[3]; [5]", "result": 30, "unit": "%"}]}]}
